Test results from patent US7629332B2, “Nitrophenyl mustard and nitrophenylaziridine alcohols and their corresponding phosphates and their use as targeted cytotoxic agents” (Auckland Uniservices Limited, priority 2003, dated 2009).

Assays:
A549 (P450R+ve) = experiment: Cell proliferation (sulphorhodamine B) IC50, P450R-transfected A549 human lung cells, anoxia vs 20% O2; assay type: cell-based; conditions: for A549 (P450R+ve) 20% O2/anoxia IC50 Ratio: 4 h, sensitivity ratio for hypoxia; for IC50: 4 h drug exposure under 0% oxygen
WiDr (NTR+ve) = experiment: Cell proliferation (sulphorhodamine B) IC50, NTR-transfected WiDr human colon cells; assay type: cell-based; conditions: for WiDr WT:NTR IC50 Ratio: 4 h, sensitivity ratio for NTR expression; for IC50: 4 h drug exposure, growth 5 further days
[1] = test system: SiHa human tumour xenografts; experiment: SiHa xenograft excision / clonogenic assay, with or without 15 Gy radiation; assay type: in vivo; conditions: for Log kill, cmpd after radiation: single i.p. dose 5 min after 15 Gy, relative to radiation only; for Log kill, cmpd only, Mean ± sem: single i.p. dose, no radiation, relative to vehicle controls, excision 18 h; for Activity against hypoxic cells: 20% of respective MTDs, after radiation
in vivo = conditions: CD-1 nude, mouse, ip

Molecule | A549 (P450R+ve) 20% O2/anoxia IC50 Ratio (A549 (P450R+ve)) | IC50 (A549 (P450R+ve)) [µM] | WiDr WT:NTR IC50 Ratio (WiDr (NTR+ve)) | IC50 (WiDr (NTR+ve)) [µM] | Log kill, cmpd after radiation ([1]; 20% of MTD) | Log kill, cmpd after radiation ([1]; 75% of MTD) | Log kill, cmpd only, Mean ± sem ([1]; 75% of MTD) | Activity against hypoxic cells [1] | MTD (in vivo) [µmol/kg]
2 [(2-Bromoethyl)-5-[[(3-Hydroxypropyl)Amino]Carbonyl]-2,4-Dinitroanilino]Ethyl Methanesulfonate [IIa-13] | 18 | 32 | 90 | 5 |  |  |  |  | 
2-((2-Bromoethyl)-2-{[(2-Hydroxyethyl)Amino]Carbonyl}-4,6-Dinitroanilino)Ethyl Methanesulfonate [IIb-12] | 133 | 0.28 | 48 | 0.4 |  |  |  |  | 
2-((2-Bromoethyl)-2-{[(2-Hydroxypropyl)Amino]Carbonyl}-4,6-Dinitroanilino)Ethyl Methanesulfonate [IIb-13] | 138 | 0.15 | 27 | 0.3 |  |  |  |  | 
2-((2-Bromoethyl)-3-{[(2-Hydroxyethyl)Amino]carbonyl}-2,4-Dinitroanilino)Ethyl Methanesulfonate [IIc-12] | 173 | 2.6 | 84 | 5 |  |  |  |  | 
2-((2-Bromoethyl)-3-{[(3-Hydroxypropyl)Amino]Carbonyl}-2,4-Dinitroanilino)Ethyl Methanesulfonate [IIc-13] | 134 | 4.5 | 95 | 4.3 |  |  |  |  | 
2-((2-Bromoethyl)-3-{[(4-Hydroxybutyl)Amino]Carbonyl}-2,4-Dinitroanilino)Ethyl Methanesulfonate [IIc-14] | 57 | 7.1 | 16 | 20 |  |  |  |  | 
2-((2-Iodoethyl)-2-{[(2-Hydroxyethyl)Amino]Carbonyl}-4,6-Dinitroanilino)Ethyl Methanesulfonate [IIb-15] | 118 | 0.28 | 31 | 0.3 |  |  |  |  | 
2-[(2-Bromoethyl)-2,4-Dinitro-3-[[[2-(Phosphonooxy)Ethyl]Amino]-Carbonyl]Anilino]Ethyl Methanesulfonate [Ic-12P] |  |  |  |  | 2.03 ± 0.25 | ≧2.96 ± 0.31 | 1.04 ± 0.29 |  | 
2-[(2-Bromoethyl)-2,4-Dinitro-3-[[[3-(Phosphonooxy)Propyl]Amino]-Carbonyl]Anilino]Ethyl Methanesulfonate [Ic-13P] |  |  |  |  | 1.60 ± 0.20 | ≧3.23 ± 0.08 | 2.36 ± 0.28 |  | 
2-[(2-Bromoethyl)-2,4-Dinitro-6-[[[2-(Phosphonooxy)Ethyl]Amino]-Carbonyl]Anilino]Ethyl Methanesulfonate [Ib-12P] |  |  |  |  | 1.65 ± 0.19 | ≧3.38 ± 0.28 | 1.32 ± 0.30 |  | 
2-[(2-Chloroethyl)-2,4-Dinitro-3-[[[3-(Phosphonooxy)Propyl]Amino]-Carbonyl]Anilino]Ethyl Methanesulfonate [Ic-6P] |  |  |  |  | 1.64 ± 0.30 | ≧2.62 ± 0.17 | 1.11 ± 0.20 |  | 
2-[(2-Chloroethyl)-2,4-Dinitro-6-[[[2-(Phosphonooxy)Ethyl]amino]-Carbonyl]Anilino]Ethyl Methanesulfonate [Ib-2mP] |  |  |  |  | 2.56 ± 0.37 | ≧3.47 ± 0.17 | 2.47 ± 0.08 |  | 
2-[(2-Iodoethyl)-2,4-Dinitro-3-[[[3-(Phosphonooxy)Propyl]Amino]-Carbonyl]Anilino]Ethyl Methanesulfonate [Ic-15P] |  |  |  |  | 1.81 ± 0.23 | 2.80 ± 0.40 | 2.27 ± 0.17 |  | 
2-[(2-Iodoethyl)-2,4-Dinitro-6-({[2-(Phosphonooxy)Ethyl]Amino}Carbonyl)-Anilino]Ethyl Methanesulfonate [Ib-15P] |  |  |  |  | 1.74 ± 0.23 | ≧3.27 ± 0.13 | 2.24 ± 0.15 |  | 
2-[Bis(2-Chloroethyl)Amino]-N-(6-Hydroxybexyl)-3,5-Dinitrobenzamide [IIb-6] |  |  | 5 | 27 |  |  |  |  | 
O=C(O)CCCc1ccc(N(CCCl)CCCl)cc1 [Chlorambucil, reference compound] |  |  |  |  |  |  | 0.11 ± 0.04 | lacked activity | 237
O=P1(N(CCCl)CCCl)NCCCO1 (centres unmarked) [Cyclophosphamide, reference compound] |  |  |  |  |  |  |  | lacked activity | 750
